Data on 3 compounds can be found in patent publication US8895260B2, “Screening assay for ribosomal antibiotics” (priority 2006, dated 2014).

Type in all cases: cell-based, Mycobacterium smegmatis
For experiment [1], the system named is wild type bacterial cells 1408A. In words: MIC of rRNA mutants, wild type bacterial cells 1408A. The method, then: (§1) The recombinants carrying the respective mutational alterations in the functional rRNA operon were colony-purified and subjected to determinations of minimal inhibitory concentrations (MIC) to determine ribosomal drug susceptibility. Cultures from single colonies were grown in LB medium supplemented with 0.05% Tween 80 and used for MIC tests in a microtiter plate format. Starting cultures contained 200 μl of bacterial cells at an optical density of 0.025 at 600 nm, and the respective drug was added in twofold series of dilution.
(§2) This was illustrated by the polymorphism of 16S rRNA position 1408 and susceptibility to 4,6-aminoglycosides with a 6′ NH3 group (e.g. gentamicin, tobramycin, kanamycin). 4,6-aminoglycosides with a 6′ NH3 group bound to the ribosomal A-site encompassing nucleotides […] and selectively targeted the bacterial ribosome, but not the eukaryotic cytoplasmic ribosome. An important polymorphism in the rRNA concerns nucleotide position 1408: prokaryotic ribosomes are characterized by an adenine, eukaryotic cytoplasmic ribosomes by a guanine. Replacing the adenine by a guanine at 16S rRNA position 1408 made the bacterial ribosome completely unsusceptible towards 4,6-amino-glycosides with a 6′ NH3 group (see Table). […]

Experiment [2] relates to mutant bacterial cells 1408G. Nature of the experiment: MIC of rRNA mutants, mutant bacterial cells 1408G (human cytoplasmic nucleotide at 16S rRNA position 1408). The procedure: as §1, §2
For another experiment, the system named is M. smegmatis. Nature of the experiment: MIC, M. smegmatis with bacterial rRNA decoding site. On the set-up: unit not given here. The procedure:
as §1
(§3) The MIC data shown below in example 5 were obtained with bacterial hybrid ribosomes carrying human and protozoan rRNA decoding sites in a method of the invention. […] Nucleotide positions depicted in bold represent residues that are specific for the corresponding eukaryotic decoding site. The part of the human and protozoan decoding sites introduced into the bacterial ribsosome is boxed. The nucleotide positions are numbered according to the numbering of homologous positions in E. coli 16S rRNA.

The test system of experiment [3] is bacterial hybrid ribosomes carrying Homo sapiens mitochondrion rRNA decoding site. In words: MIC, bacterial hybrid ribosomes carrying human mitochondrial rRNA decoding site. Also on record: unit not given here. Conditions: Homo sapiens mitochondrion decoding site in bacterial hybrid ribosome. The procedure:
as §1, §3

In experiment [4] the test system is bacterial hybrid ribosomes carrying Leishmania Trypanosoma rRNA decoding site. Nature of the experiment: MIC, bacterial hybrid ribosomes carrying protozoan rRNA decoding site. On the set-up: unit not given here. The note with it: Leishmania Trypanosoma decoding site in bacterial hybrid ribosome. The procedure:
as §1, §3

As for `NC[C@H]1O[C@H](O[C@H]2[C@H](O)[C@@H](O[C@H]3O[C@H](CO)[C@@H](O)[C@H](N)[C@H]3O)[C@H](N)C[C@@H]2N)[C@H](N)C[C@@H]1O` [Tobramycin], the MIC is 2 µg/mL in experiment [1] (Mycolicibacterium smegmatis, 72 h, read-out: MIC, minimal inhibitory concentration) and greater than 1020 µg/mL in experiment [2] (Mycolicibacterium smegmatis, CELLS1408G, 72 h, read-out: MIC, minimal inhibitory concentration).
As to Gentamicin, the “MIC, minimal inhibitory concentration” value in experiment [1] (wild type bacterial cells 1408A, 72h at 37° C.) is 1 µg/mL; in experiment [2] (mutant bacterial cells 1408G, 72h at 37° C.) it was greater than 1024 µg/mL. Besides, the results for the MIC (with M. smegmatis; in experiment [3]; in experiment [4]) were 1, 64-128 and greater than 1024, respectively.
On to Neomycin, for which the figures for the MIC (against M. smegmatis; in experiment [3]; in experiment [4]) were 0.5, 16-32 and greater than 1024, respectively.
